From ChEMBL document CHEMBL1201862, “PubChem BioAssay data set” (2004)
Active and inactive are the calls of the source.

What was measured:
Type in all cases: functional
[1] = target: T1, Serine/threonine-protein kinase Nek2 (Homo sapiens, UniProt P51955)
T1 sequence (P51955 whole entry): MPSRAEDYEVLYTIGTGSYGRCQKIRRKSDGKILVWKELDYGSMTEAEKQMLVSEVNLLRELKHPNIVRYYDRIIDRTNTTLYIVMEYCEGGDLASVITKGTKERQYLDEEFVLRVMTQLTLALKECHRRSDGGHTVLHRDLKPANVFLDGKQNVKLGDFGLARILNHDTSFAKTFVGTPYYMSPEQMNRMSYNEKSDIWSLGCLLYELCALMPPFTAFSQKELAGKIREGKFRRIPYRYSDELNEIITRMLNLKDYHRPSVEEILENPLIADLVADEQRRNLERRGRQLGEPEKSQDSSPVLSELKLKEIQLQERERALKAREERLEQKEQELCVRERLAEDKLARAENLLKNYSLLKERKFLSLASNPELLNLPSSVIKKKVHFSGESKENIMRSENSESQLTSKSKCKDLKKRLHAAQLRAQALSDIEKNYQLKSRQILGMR

[2] = target: Hepatocyte growth factor receptor (Homo sapiens, UniProt P08581);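 further: kinase panel profiling across the kinome, with MET as the panel member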
[3] = target: Rho-associated protein kinase 1 (Homo sapiens, UniProt Q13464);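 further: measured within a broad kinome-wide panel profiling many kinases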
[4] = target: Dual specificity tyrosine-phosphorylation-regulated kinase 1B (Homo sapiens, UniProt Q9Y463); test: Navigating the Kinome. Panel member name: DYRK1B
[5] = target: T2, Tyrosine-protein kinase JAK3 (Homo sapiens, UniProt P52333)
T2 sequence (P52333 whole entry): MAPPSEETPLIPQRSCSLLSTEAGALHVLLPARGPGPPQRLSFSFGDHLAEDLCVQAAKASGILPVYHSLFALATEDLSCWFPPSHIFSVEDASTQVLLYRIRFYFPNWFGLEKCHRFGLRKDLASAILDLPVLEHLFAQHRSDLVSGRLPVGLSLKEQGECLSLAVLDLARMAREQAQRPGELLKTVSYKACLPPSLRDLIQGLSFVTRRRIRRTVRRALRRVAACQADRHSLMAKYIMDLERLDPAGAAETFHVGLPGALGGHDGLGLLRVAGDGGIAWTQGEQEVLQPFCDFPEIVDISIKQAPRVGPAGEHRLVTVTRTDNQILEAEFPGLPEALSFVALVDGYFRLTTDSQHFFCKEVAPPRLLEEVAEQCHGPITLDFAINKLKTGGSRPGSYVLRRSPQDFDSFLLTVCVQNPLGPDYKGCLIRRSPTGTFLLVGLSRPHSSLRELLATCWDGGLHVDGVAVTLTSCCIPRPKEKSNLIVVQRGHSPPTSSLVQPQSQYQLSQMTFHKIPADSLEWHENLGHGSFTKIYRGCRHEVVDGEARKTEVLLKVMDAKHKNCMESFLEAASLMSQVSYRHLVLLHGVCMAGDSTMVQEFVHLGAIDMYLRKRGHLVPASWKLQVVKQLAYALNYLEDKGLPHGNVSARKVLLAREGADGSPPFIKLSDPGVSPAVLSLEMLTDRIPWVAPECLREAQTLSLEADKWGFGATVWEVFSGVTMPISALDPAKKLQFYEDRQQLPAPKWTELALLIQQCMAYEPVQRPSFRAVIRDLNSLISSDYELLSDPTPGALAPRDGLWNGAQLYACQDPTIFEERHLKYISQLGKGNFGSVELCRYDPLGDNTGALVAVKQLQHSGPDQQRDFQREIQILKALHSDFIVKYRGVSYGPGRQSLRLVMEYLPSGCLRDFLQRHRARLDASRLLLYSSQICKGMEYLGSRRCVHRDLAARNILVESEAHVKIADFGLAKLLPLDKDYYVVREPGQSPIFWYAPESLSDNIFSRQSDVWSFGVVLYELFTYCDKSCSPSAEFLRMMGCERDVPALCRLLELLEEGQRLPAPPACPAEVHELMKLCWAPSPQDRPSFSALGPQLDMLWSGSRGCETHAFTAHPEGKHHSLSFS

[6] = target: Dual specificity tyrosine-phosphorylation-regulated kinase 1A (Homo sapiens, UniProt Q13627);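 further: measured against DYRK1A as one member of a broad kinome profiling panel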
[7] = target: Ribosomal protein S6 kinase alpha-3 (Homo sapiens, UniProt P51812);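 further: measured within a kinome-wide profiling panel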
[8] = target: Proto-oncogene tyrosine-protein kinase receptor Ret (Homo sapiens, UniProt P07949);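 further: measured within a kinome-wide profiling panel, RET as the panel member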
[9] = target: T3, Receptor-type tyrosine-protein kinase FLT3 (Homo sapiens, UniProt P36888);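 further: FLT3 was tested as one member of a kinome-wide kinase panel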
T3 sequence (P36888 whole entry): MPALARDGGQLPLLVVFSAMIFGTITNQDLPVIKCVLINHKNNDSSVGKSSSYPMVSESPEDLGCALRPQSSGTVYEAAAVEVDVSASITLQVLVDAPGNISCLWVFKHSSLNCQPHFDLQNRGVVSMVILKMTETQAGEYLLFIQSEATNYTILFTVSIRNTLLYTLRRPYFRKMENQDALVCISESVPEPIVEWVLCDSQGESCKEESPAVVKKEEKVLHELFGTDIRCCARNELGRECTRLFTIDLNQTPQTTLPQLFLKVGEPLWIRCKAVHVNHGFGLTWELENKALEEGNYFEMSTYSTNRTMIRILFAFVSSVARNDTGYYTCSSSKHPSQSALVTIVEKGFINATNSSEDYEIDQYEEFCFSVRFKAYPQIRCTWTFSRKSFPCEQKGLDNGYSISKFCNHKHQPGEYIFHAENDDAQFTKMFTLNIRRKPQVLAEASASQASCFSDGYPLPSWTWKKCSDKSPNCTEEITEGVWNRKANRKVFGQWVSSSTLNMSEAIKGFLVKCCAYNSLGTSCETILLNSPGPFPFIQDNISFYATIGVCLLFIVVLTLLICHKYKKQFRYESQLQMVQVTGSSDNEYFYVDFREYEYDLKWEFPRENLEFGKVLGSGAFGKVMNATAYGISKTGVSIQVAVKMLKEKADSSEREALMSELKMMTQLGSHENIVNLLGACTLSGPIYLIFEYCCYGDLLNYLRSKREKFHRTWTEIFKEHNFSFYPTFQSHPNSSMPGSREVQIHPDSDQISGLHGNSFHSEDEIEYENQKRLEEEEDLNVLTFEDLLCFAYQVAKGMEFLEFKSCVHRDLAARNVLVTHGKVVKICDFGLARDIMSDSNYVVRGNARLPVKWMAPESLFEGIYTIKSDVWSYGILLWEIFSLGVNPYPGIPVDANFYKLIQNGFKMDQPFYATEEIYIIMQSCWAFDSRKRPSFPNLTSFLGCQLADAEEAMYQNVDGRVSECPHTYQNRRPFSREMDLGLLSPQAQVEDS

[10] = target: ALK tyrosine kinase receptor (Homo sapiens, UniProt Q9UM73);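 further: ALK tested as one member of a kinase panel screen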
ALK tyrosine kinase receptor, sequence (Q9UM73 whole entry): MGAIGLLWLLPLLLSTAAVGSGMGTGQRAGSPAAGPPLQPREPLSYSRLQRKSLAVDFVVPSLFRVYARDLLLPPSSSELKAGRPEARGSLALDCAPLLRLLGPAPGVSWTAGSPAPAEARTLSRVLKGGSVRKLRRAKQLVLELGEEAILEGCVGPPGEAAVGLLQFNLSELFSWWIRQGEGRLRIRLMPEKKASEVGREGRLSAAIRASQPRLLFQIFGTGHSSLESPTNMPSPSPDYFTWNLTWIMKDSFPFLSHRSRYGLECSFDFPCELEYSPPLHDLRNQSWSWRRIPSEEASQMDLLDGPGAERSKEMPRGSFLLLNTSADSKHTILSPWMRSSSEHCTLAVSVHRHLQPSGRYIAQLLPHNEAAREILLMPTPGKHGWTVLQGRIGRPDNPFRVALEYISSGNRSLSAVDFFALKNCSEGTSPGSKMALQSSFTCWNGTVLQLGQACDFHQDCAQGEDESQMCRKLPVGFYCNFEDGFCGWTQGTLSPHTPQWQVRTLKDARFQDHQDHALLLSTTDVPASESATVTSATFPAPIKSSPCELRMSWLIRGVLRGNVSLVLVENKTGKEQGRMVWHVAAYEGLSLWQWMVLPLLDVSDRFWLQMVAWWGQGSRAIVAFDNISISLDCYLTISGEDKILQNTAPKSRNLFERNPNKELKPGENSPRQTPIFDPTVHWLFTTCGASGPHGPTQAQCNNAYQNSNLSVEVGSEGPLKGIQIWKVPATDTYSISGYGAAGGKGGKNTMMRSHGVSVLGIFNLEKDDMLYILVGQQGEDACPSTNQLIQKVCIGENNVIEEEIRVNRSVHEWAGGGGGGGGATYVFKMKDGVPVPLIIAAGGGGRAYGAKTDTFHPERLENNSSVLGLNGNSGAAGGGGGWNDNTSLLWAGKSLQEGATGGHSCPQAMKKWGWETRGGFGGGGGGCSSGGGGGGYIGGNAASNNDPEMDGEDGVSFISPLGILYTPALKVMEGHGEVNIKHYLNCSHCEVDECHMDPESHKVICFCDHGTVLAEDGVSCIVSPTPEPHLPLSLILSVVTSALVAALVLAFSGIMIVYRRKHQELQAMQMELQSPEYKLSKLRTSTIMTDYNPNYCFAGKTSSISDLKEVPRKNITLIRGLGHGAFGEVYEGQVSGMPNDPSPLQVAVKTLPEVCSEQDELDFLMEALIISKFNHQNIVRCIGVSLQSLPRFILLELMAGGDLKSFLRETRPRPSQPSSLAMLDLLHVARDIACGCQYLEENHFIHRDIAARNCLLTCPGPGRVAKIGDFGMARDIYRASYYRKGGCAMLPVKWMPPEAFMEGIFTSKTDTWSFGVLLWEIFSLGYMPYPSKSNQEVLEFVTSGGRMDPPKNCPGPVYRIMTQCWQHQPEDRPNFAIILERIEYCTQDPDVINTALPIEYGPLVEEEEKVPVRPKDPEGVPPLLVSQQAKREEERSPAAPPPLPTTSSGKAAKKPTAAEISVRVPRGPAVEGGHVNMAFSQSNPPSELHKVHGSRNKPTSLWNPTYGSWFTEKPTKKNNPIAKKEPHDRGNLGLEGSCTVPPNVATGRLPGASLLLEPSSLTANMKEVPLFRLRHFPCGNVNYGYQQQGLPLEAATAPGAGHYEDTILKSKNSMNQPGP

Rho-associated protein kinase 1, sequence (Q13464 whole entry): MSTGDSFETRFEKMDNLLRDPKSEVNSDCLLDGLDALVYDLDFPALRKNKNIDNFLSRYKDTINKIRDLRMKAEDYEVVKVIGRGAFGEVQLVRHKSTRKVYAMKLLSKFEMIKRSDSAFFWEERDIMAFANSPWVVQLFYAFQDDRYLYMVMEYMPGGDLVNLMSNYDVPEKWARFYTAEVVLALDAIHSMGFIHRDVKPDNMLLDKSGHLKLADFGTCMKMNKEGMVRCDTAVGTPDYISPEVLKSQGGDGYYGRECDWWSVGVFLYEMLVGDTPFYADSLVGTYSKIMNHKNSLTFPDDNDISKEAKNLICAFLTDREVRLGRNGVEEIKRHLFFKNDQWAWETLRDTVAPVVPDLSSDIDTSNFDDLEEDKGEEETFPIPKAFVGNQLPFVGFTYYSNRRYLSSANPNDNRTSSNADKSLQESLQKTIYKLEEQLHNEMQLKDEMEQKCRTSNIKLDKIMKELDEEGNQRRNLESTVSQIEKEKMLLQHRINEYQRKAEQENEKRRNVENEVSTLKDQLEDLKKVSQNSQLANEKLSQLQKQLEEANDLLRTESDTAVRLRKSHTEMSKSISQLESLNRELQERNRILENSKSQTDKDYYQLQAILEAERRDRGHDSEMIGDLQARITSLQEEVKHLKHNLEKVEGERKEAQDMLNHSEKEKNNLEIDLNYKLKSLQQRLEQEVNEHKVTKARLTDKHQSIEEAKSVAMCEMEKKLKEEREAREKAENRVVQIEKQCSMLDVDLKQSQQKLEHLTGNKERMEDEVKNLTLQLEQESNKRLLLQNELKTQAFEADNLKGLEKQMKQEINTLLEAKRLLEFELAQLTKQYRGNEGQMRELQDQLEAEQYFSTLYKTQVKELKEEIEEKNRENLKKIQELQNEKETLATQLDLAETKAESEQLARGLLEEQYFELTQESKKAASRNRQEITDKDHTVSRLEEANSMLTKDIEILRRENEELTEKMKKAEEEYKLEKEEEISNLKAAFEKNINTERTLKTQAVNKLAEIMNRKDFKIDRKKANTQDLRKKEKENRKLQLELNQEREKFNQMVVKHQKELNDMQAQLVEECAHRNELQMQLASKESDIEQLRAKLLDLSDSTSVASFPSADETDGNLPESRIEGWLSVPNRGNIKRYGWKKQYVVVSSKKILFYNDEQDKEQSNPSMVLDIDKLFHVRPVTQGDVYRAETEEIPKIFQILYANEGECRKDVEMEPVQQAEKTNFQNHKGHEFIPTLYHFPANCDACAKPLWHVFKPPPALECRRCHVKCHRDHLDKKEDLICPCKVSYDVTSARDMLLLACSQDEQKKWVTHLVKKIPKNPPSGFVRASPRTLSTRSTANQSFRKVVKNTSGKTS
Dual specificity tyrosine-phosphorylation-regulated kinase 1B, sequence (Q9Y463 whole entry): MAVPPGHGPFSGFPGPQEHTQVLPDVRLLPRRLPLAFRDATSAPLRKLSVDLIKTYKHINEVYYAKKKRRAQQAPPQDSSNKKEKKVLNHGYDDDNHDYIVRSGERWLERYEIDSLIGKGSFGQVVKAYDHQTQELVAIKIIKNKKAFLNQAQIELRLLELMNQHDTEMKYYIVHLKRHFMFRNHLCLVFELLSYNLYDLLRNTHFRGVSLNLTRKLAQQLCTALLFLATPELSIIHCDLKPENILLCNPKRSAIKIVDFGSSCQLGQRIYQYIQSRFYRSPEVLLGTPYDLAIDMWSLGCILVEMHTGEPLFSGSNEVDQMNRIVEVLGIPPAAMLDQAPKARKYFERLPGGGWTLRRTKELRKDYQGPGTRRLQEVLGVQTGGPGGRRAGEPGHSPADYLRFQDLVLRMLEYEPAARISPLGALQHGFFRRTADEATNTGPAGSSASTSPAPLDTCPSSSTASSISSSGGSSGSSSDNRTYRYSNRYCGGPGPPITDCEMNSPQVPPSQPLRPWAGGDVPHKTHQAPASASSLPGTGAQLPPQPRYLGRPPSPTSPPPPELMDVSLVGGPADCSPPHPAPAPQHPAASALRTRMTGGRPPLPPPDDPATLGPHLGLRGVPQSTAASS
Ribosomal protein S6 kinase alpha-3, sequence (P51812 whole entry): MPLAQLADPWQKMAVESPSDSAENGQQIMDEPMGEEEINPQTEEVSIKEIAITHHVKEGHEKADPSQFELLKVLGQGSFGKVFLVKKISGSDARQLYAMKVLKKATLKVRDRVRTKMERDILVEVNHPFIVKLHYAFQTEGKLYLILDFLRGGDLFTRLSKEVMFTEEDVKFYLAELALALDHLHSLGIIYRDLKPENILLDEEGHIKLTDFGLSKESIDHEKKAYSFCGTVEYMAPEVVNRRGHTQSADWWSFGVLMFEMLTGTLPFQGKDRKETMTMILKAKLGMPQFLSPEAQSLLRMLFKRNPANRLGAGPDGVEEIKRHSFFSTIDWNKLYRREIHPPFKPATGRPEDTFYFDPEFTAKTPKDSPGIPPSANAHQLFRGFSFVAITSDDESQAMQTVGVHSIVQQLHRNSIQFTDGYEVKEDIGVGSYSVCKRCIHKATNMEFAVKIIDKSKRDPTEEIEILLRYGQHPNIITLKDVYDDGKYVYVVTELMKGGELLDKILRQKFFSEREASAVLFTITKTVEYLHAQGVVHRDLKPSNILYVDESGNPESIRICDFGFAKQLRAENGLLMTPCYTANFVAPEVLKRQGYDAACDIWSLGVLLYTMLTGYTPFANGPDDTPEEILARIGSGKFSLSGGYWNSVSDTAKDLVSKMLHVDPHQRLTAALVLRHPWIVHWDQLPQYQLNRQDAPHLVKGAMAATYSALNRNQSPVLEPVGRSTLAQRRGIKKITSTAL

SMILES | Ki [1] | Ki [2] | Ki [3] | Ki [4] | Ki [5] | Ki [6] | Ki [7] | Ki [8] | Ki [9] | Ki [10] | pKi [10]
COc1ccc(C2=NNc3cccc4c(OC)ccc2c34)cc1OC | 200 nM (active) | 316 nM (active) | 501 nM (active) | 316 nM (active) | 251 nM (active) | 79.4 nM (active) | 1580 nM (active) | 501 nM (active) | 2510 nM (active) | 1580 nM (active) | 
Cc1ccc(C)c(NC(=O)c2cc(-c3ccco3)nc3ccccc23)c1 | 1260 nM (active) | 631 nM (active) | > 3980 nM (inactive) | 1000 nM (active) | > 5010 nM (inactive) | 631 nM (active) | 3160 nM (active) | 3160 nM (active) | > 3160 nM (inactive) | > 6310 nM (inactive) | 
CN1CCC(c2c(O)cc(O)c3c(=O)cc(-c4ccccc4Cl)oc23)C(O)C1 (stereo unspecified) | > 6310 nM (inactive) | > 2510 nM (inactive) | > 6310 nM (inactive) | 126 nM (active) | > 3980 nM (inactive) | 794 nM (active) | 1260 nM (active) | > 2000 nM (inactive) | > 2510 nM (inactive) | 631 nM (active) | 6.2
